# Test results taken from US8952024B2, “Herbicidal pyrimidone derivatives” (E I du Pont de Nemours and Company, priority 2009, dated 2015).
# Tests used:
# Assay type in all cases: in vivo
# [1] = test system: windgrass (Apera spica-venti); assay: Test B postemergence plant response; conditions: Postemergence
# Outline: (§1)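 Visual ratings from 0 (no effect) to 100 (complete control), made against controls 13–15 days after treatment, kept in a greenhouse. Compounds were applied postemergence to potted plants at the 1- to 4-leaf stage (2–18 cm).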
# [2] = test system: canarygrass (Phalaris minor); assay: Test B postemergence plant response; conditions: Postemergence
# Outline: as §1
# [3] = test system: winter barley (Hordeum vulgare); assay: Test B postemergence plant response; conditions: for Barley plant response rating (0 to 100 scale): 62 g ai/ha, postemergence, 0 is no effect, 100 is complete control; for Plant response rating, Barley: Postemergence
# Outline: as §1
# [4] = test system: chickweed (Stellaria media); assay: Test B postemergence plant response; conditions: Postemergence
# Outline: as §1
# [5] = test system: morningglory (Ipomoea coccinea); assay: Test B pre-/postemergence plant response; conditions: Postemergence
# Outline: (§2)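 Test compounds, formulated in a non-phytotoxic solvent mixture with surfactant, are applied to the soil surface (loam and sand blend) right after seeding, or sprayed over plants at the 1- to 4-leaf stage grown in peat moss/vermiculite medium. After 13 to 15 days under glasshouse conditions, each species is scored visually from 0 (no effect) to 100 (complete control) against controls.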
# [6] = test system: bermudagrass (Cynodon dactylon); assay: Test B pre-/postemergence plant response; conditions: for Bermudagrass plant response rating (0 to 100 scale): 62 g ai/ha, postemergence, 0 is no effect, 100 is complete control; for Plant response rating, Bermudagrass: Postemergence
# Outline: as §2
# wild oat (Avena fatua) = assay: Test B pre-/postemergence plant response; conditions: Postemergence
# Outline: as §2
# soybean (Glycine max) = assay: Test B pre-/postemergence plant response; conditions: Postemergence
# Outline: as §2
# corn (Zea mays) = assay: Test B pre-/postemergence plant response; conditions: Postemergence
# Outline: as §2
# kochia (Kochia scoparia) = assay: Test B pre-/postemergence plant response; conditions: Postemergence
# Outline: as §2
# [7] = test system: giant foxtail (Setaria faberii); assay: Test B pre-/postemergence plant response; conditions: Postemergence
# Outline: as §2
# [8] = test system: johnsongrass (Sorghum halepense); assay: Test B pre-/postemergence plant response; conditions: Postemergence
# Outline: as §2
# [9] = test system: blackgrass (Alopecurus myosuroides); assay: Test B pre-/postemergence plant response; conditions: for Blackgrass plant response rating (0 to 100 scale): 62 g ai/ha, postemergence, 0 is no effect, 100 is complete control; for Plant response rating, Blackgrass: Postemergence
# Outline: as §2
# [10] = test system: cocklebur (Xanthium strumarium); assay: Test B pre-/postemergence plant response; conditions: Postemergence
# Outline: as §2
# [11] = 31 g ai/ha, 0 to 100 scale (0 no effect, 100 complete control)
# [12] = 125 g ai/ha, scale 0 to 100 (0 no effect, 100 complete control)
# [13] = 250 g ai/ha, scale 0 to 100 (0 no effect, 100 complete control), 13 to 15 days
compound,measurement,setting,value
Cc1ccc(F)cc1-n1c(-c2cccc(Cl)c2)ncc(C(=O)C2=C(O)CCCC2=O)c1=O [Compound 157],"Plant response rating, Windgrass",[1]; [11],60
same,"Plant response rating, Windgrass",[1]; [12],70
same,"Plant response rating, Windgrass",[1]; [13],80
same,"Plant response rating, Canarygrass",[2]; [11],40
same,"Plant response rating, Canarygrass",[2]; [12],80
same,"Plant response rating, Canarygrass",[2]; [13],90
same,Barley plant response rating (0 to 100 scale),[3]; 13 to 15 days,15
same,"Plant response rating, Barley",[3]; [11],5
same,"Plant response rating, Barley",[3]; [12],30
same,"Plant response rating, Barley",[3]; [13],30
same,"Plant response rating, Chickweed",[4]; [11],100
same,"Plant response rating, Chickweed",[4]; [12],100
same,"Plant response rating, Chickweed",[4]; [13],100
same,"Plant response rating, Morningglory",[5]; [11],20
same,"Plant response rating, Morningglory",[5]; [12],95
same,"Plant response rating, Morningglory",[5]; [13],100
same,Bermudagrass plant response rating (0 to 100 scale),[6]; 13 to 15 days,90
same,"Plant response rating, Bermudagrass",[6]; [11],75
same,"Plant response rating, Bermudagrass",[6]; [12],100
same,"Plant response rating, Bermudagrass",[6]; [13],100
same,"Plant response rating, Oat, Wild",wild oat (Avena fatua); [11],30
same,"Plant response rating, Oat, Wild",wild oat (Avena fatua); [12],60
same,"Plant response rating, Oat, Wild",wild oat (Avena fatua); [13],70
same,"Plant response rating, Soybean",soybean (Glycine max); [11],95
same,"Plant response rating, Soybean",soybean (Glycine max); [12],100
same,"Plant response rating, Soybean",soybean (Glycine max); [13],100
same,"Plant response rating, Corn",corn (Zea mays); [11],70
same,"Plant response rating, Corn",corn (Zea mays); [12],95
same,"Plant response rating, Corn",corn (Zea mays); [13],100
same,"Plant response rating, Kochia",kochia (Kochia scoparia); [11],0
same,"Plant response rating, Kochia",kochia (Kochia scoparia); [12],10
same,"Plant response rating, Kochia",kochia (Kochia scoparia); [13],45
same,"Plant response rating, Foxtail, Giant",[7]; [11],98
same,"Plant response rating, Foxtail, Giant",[7]; [12],100
same,"Plant response rating, Foxtail, Giant",[7]; [13],100
same,"Plant response rating, Johnsongrass",[8]; [11],70
same,"Plant response rating, Johnsongrass",[8]; [12],100
same,"Plant response rating, Johnsongrass",[8]; [13],100
same,Blackgrass plant response rating (0 to 100 scale),[9]; 13 to 15 days,5
same,"Plant response rating, Blackgrass",[9]; [11],0
same,"Plant response rating, Blackgrass",[9]; [12],10
same,"Plant response rating, Blackgrass",[9]; [13],40
same,"Plant response rating, Cocklebur",[10]; [11],100
same,"Plant response rating, Cocklebur",[10]; [12],100
same,"Plant response rating, Cocklebur",[10]; [13],100
Cc1ccccc1-n1c(-c2cc(F)cc(F)c2)ncc(C(=O)C2=C(O)CCCC2=O)c1=O [Compound 159],"Plant response rating, Windgrass","[1]; 8 g ai/ha, 0 to 100 scale",10
same,"Plant response rating, Windgrass","[1]; 16 g ai/ha, 0 to 100 scale",40
same,"Plant response rating, Windgrass",[1]; [11],45
same,"Plant response rating, Canarygrass","[2]; 8 g ai/ha, 0 to 100 scale",25
same,"Plant response rating, Canarygrass","[2]; 16 g ai/ha, 0 to 100 scale",40
same,"Plant response rating, Canarygrass",[2]; [11],80
same,"Plant response rating, Barley","[3]; 8 g ai/ha, 0 to 100 scale",0
same,"Plant response rating, Barley","[3]; 16 g ai/ha, 0 to 100 scale",20
same,Barley plant response rating (0 to 100 scale),[3]; 13 to 15 days,50
same,"Plant response rating, Barley",[3]; [11],20
same,"Plant response rating, Chickweed","[4]; 8 g ai/ha, 0 to 100 scale",80
same,"Plant response rating, Chickweed","[4]; 16 g ai/ha, 0 to 100 scale",100
same,"Plant response rating, Chickweed",[4]; [11],100
same,"Plant response rating, Morningglory","[5]; 8 g ai/ha, 0 to 100 scale",0
same,"Plant response rating, Morningglory","[5]; 16 g ai/ha, 0 to 100 scale",10
same,"Plant response rating, Morningglory",[5]; [11],60
same,"Plant response rating, Bermudagrass","[6]; 8 g ai/ha, 0 to 100 scale",70
same,"Plant response rating, Bermudagrass","[6]; 16 g ai/ha, 0 to 100 scale",80
same,Bermudagrass plant response rating (0 to 100 scale),[6]; 13 to 15 days,100
same,"Plant response rating, Bermudagrass",[6]; [11],95
same,"Plant response rating, Oat, Wild","wild oat (Avena fatua); 8 g ai/ha, 0 to 100 scale",0
same,"Plant response rating, Oat, Wild","wild oat (Avena fatua); 16 g ai/ha, 0 to 100 scale",35
same,"Plant response rating, Oat, Wild",wild oat (Avena fatua); [11],60
same,"Plant response rating, Soybean","soybean (Glycine max); 8 g ai/ha, 0 to 100 scale",80
same,"Plant response rating, Soybean","soybean (Glycine max); 16 g ai/ha, 0 to 100 scale",85
same,"Plant response rating, Soybean",soybean (Glycine max); [11],95
same,"Plant response rating, Corn","corn (Zea mays); 8 g ai/ha, 0 to 100 scale",15
same,"Plant response rating, Corn","corn (Zea mays); 16 g ai/ha, 0 to 100 scale",25
same,"Plant response rating, Corn",corn (Zea mays); [11],60
same,"Plant response rating, Kochia","kochia (Kochia scoparia); 8 g ai/ha, 0 to 100 scale",20
same,"Plant response rating, Kochia","kochia (Kochia scoparia); 16 g ai/ha, 0 to 100 scale",20
same,"Plant response rating, Kochia",kochia (Kochia scoparia); [11],40
same,"Plant response rating, Foxtail, Giant","[7]; 8 g ai/ha, 0 to 100 scale",75
same,"Plant response rating, Foxtail, Giant","[7]; 16 g ai/ha, 0 to 100 scale",80
same,"Plant response rating, Foxtail, Giant",[7]; [11],85
same,"Plant response rating, Johnsongrass","[8]; 8 g ai/ha, 0 to 100 scale",10
same,"Plant response rating, Johnsongrass","[8]; 16 g ai/ha, 0 to 100 scale",45
same,"Plant response rating, Johnsongrass",[8]; [11],45
same,"Plant response rating, Blackgrass","[9]; 8 g ai/ha, 0 to 100 scale",0
same,"Plant response rating, Blackgrass","[9]; 16 g ai/ha, 0 to 100 scale",5
same,Blackgrass plant response rating (0 to 100 scale),[9]; 13 to 15 days,25
same,"Plant response rating, Blackgrass",[9]; [11],20
same,"Plant response rating, Cocklebur","[10]; 8 g ai/ha, 0 to 100 scale",75
same,"Plant response rating, Cocklebur","[10]; 16 g ai/ha, 0 to 100 scale",80
same,"Plant response rating, Cocklebur",[10]; [11],95
